Here are results for one compound from paper PMC9352670 (2022).

SMILES strings stand for the structures.

Common to all, as to assay: microscale thermophoresis
The subject of test [1] is Dm-LS-2 (DNA, aptamer, HFNAP: side-chain on 5' nucleobase of each coding trinucleotide, positions 19,22,25,...,61 (codon key Figure 1B)) GAAAGCAGGACTGGAGATCCGCGCCGCTTTTATCCCTGTCCCCGCTACCCGTATCCCTCCTTGCAGACCGAACTAGAGCTT
Particulars: 5 mM KCl, 1 mM MgCl2, 1 mM CaCl2 added; HBS-P+ buffer, 25 °C.

Test [2] concerns Dm-LS-4 (DNA, aptamer, HFNAP: side-chain on 5' nucleobase of each coding trinucleotide, positions 19,22,25,...,61 (codon key Figure 1B)) GAAAGCAGGACTGGAGATCCGCGCCGCTTTTATCCCTAGTCCCTCTTACCCTACTTCCCCTTACAGACCGAACTAGAGCTT
The settings on record: 5 mM KCl, 1 mM MgCl2, 1 mM CaCl2 added; HBS-P+ buffer, 25 °C.

Test [3] concerns Dm-HS-2 (DNA, aptamer, HFNAP: side-chain on 5' nucleobase of each coding trinucleotide, positions 19,22,25,...,61 (codon key Figure 1B)) GAAAGCAGGACTGGAGATCTATGGTCGCATCGTTGACCCTTGTCCTGCCCCTGTCTCTCTCAACAGACCGAACTAGAGCTT
Particulars: 5 mM KCl, 1 mM MgCl2, 1 mM CaCl2 added; HBS-P+ buffer, 25 °C.

The subject of test [4] is Dm-HS-6 (DNA, aptamer, HFNAP: side-chain on 5' nucleobase of each coding trinucleotide, positions 19,22,25,...,61 (codon key Figure 1B)) GAAAGCAGGACTGGAGATTGGTAGTAACTGCTGTCCTGCTAATCATGCCGTTCACGCTGACCTCAGACCGAACTAGAGCTT
The settings on record: 5 mM KCl, 1 mM MgCl2, 1 mM CaCl2 added; HBS-P+ buffer, 25 °C.

Test [5] has as its system Dm-CCS-2 (DNA, aptamer, HFNAP: side-chain on 5' nucleobase of each coding trinucleotide, positions 19,22,25,...,61 (codon key Figure 1B)) GAAAGCAGGACTGGAGATCGTTTATGGCCACCTCCTTGACAGTTGCCCTGCCTCCAGTCCTCCCAGACCGAACTAGAGCTT
Particulars: 5 mM KCl, 1 mM MgCl2, 1 mM CaCl2 added; HBS-P+ buffer, 25 °C.

Test [6] relates to Dm-reference-based-random-after-selection-5 (DNA, other, HFNAP: side-chain on 5' nucleobase of each coding trinucleotide, positions 19,22,25,...,61 (codon key Figure 1B)) GAAAGCAGGACTGGAGATCATTTCCTCCCTTATCGATAATCTCCTTTTTTATACTGCTTTTTCCAGACCGAACTAGAGCTT
Particulars: 5 mM KCl, 1 mM MgCl2, 1 mM CaCl2 added; HBS-P+ buffer, 25 °C.

Test [7] has as its system Dm-HS-6 ∆ s.c. (DNA, aptamer, none (no side-chains)) GAAAGCAGGACTGGAGATTGGTAGTAACTGCTGTCCTGCTAATCATGCCGTTCACGCTGACCTCAGACCGAACTAGAGCTT
The settings on record: 5 mM KCl, 1 mM MgCl2, 1 mM CaCl2 added; HBS-P+ buffer, 25 °C.

Test [8] deals with Dm-HS-8 ∆ s.c. (DNA, aptamer, none (no side-chains)) GAAAGCAGGACTGGAGATCGATTGCAGTTACGTCTCCCCTGCCCACCTTATTGCCATTCATAACAGACCGAACTAGAGCTT
Particulars: 5 mM KCl, 1 mM MgCl2, 1 mM CaCl2 added; HBS-P+ buffer, 25 °C.

Test [9] deals with Dm-HS-10 ∆ s.c. (DNA, aptamer, none (no side-chains)) GAAAGCAGGACTGGAGATCCTTCGCATCGGCTTTCTCCCTGTCACCCCTGTTCCCCTTGACCGCAGACCGAACTAGAGCTT
Particulars: 5 mM KCl, 1 mM MgCl2, 1 mM CaCl2 added; HBS-P+ buffer, 25 °C.

Test [10] concerns Dm-HS-1 CCA ∆ s.c. (DNA, aptamer, as Dm-HS-1 but no side-chain at 43: fluorophenyl at 19; allylamine at 22,25,37; alcohol at 28,34,49; phenol at 31,46; cyclopentyl at 40; cyclopropyl at 58; imidazole at 52,55,61) GAAAGCAGGACTGGAGATCGATTCTGGTGCTGTTGATCTCCGCCATTGTGCTCCTACCCTTCACAGACCGAACTAGAGCTT
The settings on record: 5 mM KCl, 1 mM MgCl2, 1 mM CaCl2 added; HBS-P+ buffer, 25 °C.

In test [11] the test system is Dm-HS-1 TGA ∆ s.c. (DNA, aptamer, as Dm-HS-1 but no side-chain at 34: fluorophenyl at 19; allylamine at 22,25,37; alcohol at 28,49; phenol at 31,46; cyclopentyl at 40; cyclopropyl at 43,58; imidazole at 52,55,61) GAAAGCAGGACTGGAGATCGATTCTGGTGCTGTTGATCTCCGCCATTGTGCTCCTACCCTTCACAGACCGAACTAGAGCTT
The settings on record: 5 mM KCl, 1 mM MgCl2, 1 mM CaCl2 added; HBS-P+ buffer, 25 °C.

Test [12] concerns Dm-HS-1 TGT ∆ s.c. (DNA, aptamer, as Dm-HS-1 but no side-chain at 31: fluorophenyl at 19; allylamine at 22,25,37; alcohol at 28,34,49; phenol at 46; cyclopentyl at 40; cyclopropyl at 43,58; imidazole at 52,55,61) GAAAGCAGGACTGGAGATCGATTCTGGTGCTGTTGATCTCCGCCATTGTGCTCCTACCCTTCACAGACCGAACTAGAGCTT
Particulars: 5 mM KCl, 1 mM MgCl2, 1 mM CaCl2 added; HBS-P+ buffer, 25 °C.

Test [13] deals with Dm-HS-1 CCG ∆ s.c. (DNA, aptamer, no side-chain at 40 (codon 8 CCG); others as HFNAP: fluorophenyl at 19; allylamine at 22, 25, 37; alcohol at 28, 34, 49; phenol at 31, 46; cyclopropyl at 43, 58; imidazole at 52, 55, 61) GAAAGCAGGACTGGAGATCGATTCTGGTGCTGTTGATCTCCGCCATTGTGCTCCTACCCTTCACAGACCGAACTAGAGCTT
The settings on record: 5 mM KCl, 1 mM MgCl2, 1 mM CaCl2 added to HBS-P+; HBS-P+ buffer, 25 °C.

Test [14] deals with Dm-HS-1 TTG ∆ s.c. (DNA, aptamer, no side-chain at 46 (codon 10 TTG); others as HFNAP: fluorophenyl at 19; allylamine at 22, 25, 37; alcohol at 28, 34, 49; phenol at 31; cyclopentyl at 40; cyclopropyl at 43, 58; imidazole at 52, 55, 61) GAAAGCAGGACTGGAGATCGATTCTGGTGCTGTTGATCTCCGCCATTGTGCTCCTACCCTTCACAGACCGAACTAGAGCTT
The settings on record: 5 mM KCl, 1 mM MgCl2, 1 mM CaCl2 added to HBS-P+; HBS-P+ buffer, 25 °C.

Turning to `COc1cccc2c1C(=O)c1c(O)c3c(c(O)c1C2=O)C[C@@](O)(C(C)=O)C[C@@H]3O[C@H]1C[C@H](N)[C@H](O)[C@H](C)O1`, the Kd worked out at 970 ± 60 nM in test [1]; 1980 ± 70 nM in test [2]; 4.77 ± 1.0 nM in test [3]; 26.86 ± 4.2 nM in [4]; 16.6 ± 14.0 nM in [5]; 119700 ± 9300 nM in test [6]. The Kd in test [10] was found to be 158.8 ± 14.2 nM; in test [11], 46.8 ± 4.8 nM; in [12], 6.7 ± 1.0 nM; in test [13] it was 21.9 ± 2.6 nM; in test [14] it was 32.6 ± 5.0 nM. Also, the figures for the “Kd ∆ side-chains” value in test [7], in [8] and in [9] were 1510 ± 65 nM, 4840 ± 260 nM and 713 ± 28 nM, respectively.
